Columns and labels:
[1] = tested on: 3D melanized reconstructed human epidermis (RHEs-MEL); assay: Tanning properties in vitro on reconstructed epidermis; format: cell-based; conditions: systemic treatment in culture medium for 10 days, positive control IBMX 100 μM
Protocol: Evaluation of the Tanning Properties In Vitro on Reconstructed Epidermis
In this study, the tanning properties of compound Id are investigated in vitro on 3D melanized reconstructed human epidermis (RHEs-MEL). The compound IBMX (3-isobutyl-1-methylxanthine) 100 μM is employed as positive control. Compound Id is employed 20 μM and […]. Untreated reconstructed skin is used as negative control. The in vitro skin is treated systemically with the compounds to be investigated in a culture medium for 10 days and then analysed.

[2] = tested on: Normal Human Epidermal Keratinocytes (NHEK) and Normal Human Epidermal Melanocytes, Lightly Pigmented (NHEM-LP) co-culture; assay: Synthesis of melanin in NHEK/NHEM-LP co-culture; format: cell-based; conditions: 240 hours (10 days) incubation, melanin extracted with 0.5 N NaOH, OD 405 nm, triple determination
Protocol: Evaluation of the Synthesis of Melanin in a Cell Culture Model Containing Two Cell Types (Co-Culture), Firstly Normal Human Epidermal Keratinocytes (NHEK) and Secondly Normal Human Epidermal Melanocytes, Lightly Pigmented (NHEM-LP)
The two cell types NHEK and NHEM-LP (NHEK:NHEM-LP) are employed in a ratio of 2:1.
The culture medium consists of the media keratinocyte-SFM (2 parts by volume) and medium M254 (1 part by volume).
Keratinocyte-SFM contains 0.25 ng/ml of epidermal growth factor (EGF), 25 μg/ml of pituitary extract (PE) and 25 μg/ml of gentamycin and was purchased from Thermo Fisher Scientific.
M254 contains PMA-free HMGS-2, 5 μg/ml of insulin, 50 U/ml of penicillin, 50 μg/ml of streptomycin and 25 μg/ml of gentamycin and was purchased from Thermo Fisher Scientific.
IBMX denotes the compound 3-isobutyl-1-methylxanthine.
Cell Culture and Treatment
NHEK and NHEM-LP were incubated in the culture medium in microtitre plates (24-well plates) for 24 hours (37° C., 5% CO2). The culture medium was removed and replaced by an assay medium which contained the culture medium and compounds Ib and Id to be tested or alternatively no test substance, the reference L-tyrosine (1 mM), 200 μM of IBMX or the solvent control 0.1% of THF, 0.15% of THF, 0.1% of DMSO, 0.15% of DMSO, 0.17% of DMSO. Compound Ib was added as solution (0.15% in DMSO). Compound Id was added as solution (0.15% in THF). After replacement of the assay medium, the cells were incubated again for 240 hours (10 days). On days 3 and 7, assay medium was again added. All experimental investigations were carried out using a triple determination. After the end of the incubation, the melanin was extracted by cell lysis with 0.5 N NaOH. The optical density (OD) of each sample was measured at 405 nm. The melanin quantity was calculated from melanin standards (standard curve 0.39 to 100 μg/ml of melanin).

| SMILES | tanning properties (reduction of the ITA value and visual colour difference) compared with IBMX ([1]; 20 μM) | tanning properties (reduction of the ITA value and visual colour difference) compared with IBMX [1] | stimulation of melanin synthesis ([2]; 20 μM) | stimulation of melanin synthesis ([2]; 45 μM) |
| --- | --- | --- | --- | --- |
| CCCCN1C(=O)NC(=O)C(Cc2ccccc2)C1=O (centres unmarked) [Compound Id, 5-benzyl-1-butylpyrimidine-2,4,6-trione] | comparably good properties as IBMX at 100 μM | comparably good properties as IBMX at 100 μM | 17% | 25% |
| COc1ccc(CC2C(=O)NC(=O)NC2=O)cc1 [Compound Ib, 5-(4-methoxybenzyl)pyrimidine-2,4,6-trione] |  |  |  | 20% |

Source: patent US20200038306A1, “[…] DERIVATIVES AS SELF-TANNING SUBSTANCES” (Merck Patent GmbH, priority 2016, published 2020)
